Data as given in US20250270209A1 (INTERLINE THERAPEUTICS, INC., priority 2022, published 2025).

Experiments:
LRRK2 wild type enzyme = LRRK2 wild type enzyme (Homo sapiens, UniProt Q5S007); assay: Biochemical Assay: LRRK2 TR-FRET (LanthaScreen) kinase assay with LRRKtide substrate; details: LRRK2 Inhibition, Table 8
Procedure: 10 mM compound solution was prepared in DMSO. An 11-point, 3-fold dilution was performed, with highest concentration at 10 μM. A 10 mM compound DMSO solution was added to Labcyte LDV plate and the compound concentration of source plate was 10 mM. The 1st compound concentration of Inter plate(Labcyte 384 well PP plate) was 4.938×10^−1 mM which was prepared by transferring 1.5 μL of 10 mM compound from source plate to 28.9 μL DMSO. The 2nd compound concentration of Inter plate was 1.829×10^−2 mM which was prepared by transferring 60 nL of 10 mM compound from source plate to 32.7 μL DMSO. The 3rd compound concentration of Inter plate was 6.774×10^−4 mM which was prepared by transferring 2.5 nL of 10 mM compound from source plate to 36.9 μL DMSO. 100 nL of reference compound was dispensed in column 1 for low control wells and 100 nL of DMSO in column 24 for high control wells. Compounds were dispensed to column 2 to 23 of assay plate and backfilled with DMSO to a total volume of 100 nL.
A 2X LRRK2 enzyme solution (final concentration 3 nM) was prepared in assay buffer (Tris-HCl pH8.0:50 mM, MgCl2: 5 mM, EDTA: 1 mM, Brij-35:0.01%, 2 mM DTT). A 2× substrate solution was prepared: LRRK2 tide substrate (final concentration 400 nM) and ATP (final concentration 25 μM) in assay buffer. 5 μL 2× LRRK2 enzyme solution was dispensed to each well in assay plate by Multidrop. Assay plate was spun at 1,000 rpm for 1 min and incubated for 15 min at 23° C. 5 μL 2× ATP/LRRKtide solution was dispensed to each well in assay plate by Multidrop. Assay plate was spun at 1,000 rpm for 1 min and incubated for 120 min at 23° C.
(§1) A 2× detection solution was prepared: Tb-pERM (pLRRKtide) antibody (final concentration 0.25 nM) and EDTA (final concentration 10 mM) in TR-FRET dilution buffer. 10 μL 2× detection solution was dispensed to each well in assay plate to stop kinase reaction by Multidrop. Assay plate was spun at 1,000 rpm for 1 min and incubate for 30 min at 23° C. Assay plate was then read on Envision configured for LanthaScreen® TR-FRET. pS935 LRRK2 Cell Assay

[1] = target: T1, wild type LRRK2 overexpressed in recombinant HEK-293T cells (Homo sapiens, UniProt Q5S007); assay: pS935 LRRK2 Cell Assay (HTRF, phospho-LRRK2 Ser935); assay type: cell-based; details: LRRK2 Inhibition, Table 8, 2 hours compound incubation
T1 construct: host or cells: HEK293T (transient transfection with pCMV-LRRK2 WT plasmid)
Procedure: as §1
The following protocol describes an in-vitro method for measuring phosphorylation at Ser935 on wild type LRRK2 overexpressed in recombinant HEK-293T cells. The method is based on HTRF technology, which combines Fluorescence Resonance Energy Transfer (FRET) with Time-Resolved measurement (TR). Phospho-LRRK2 (Ser935) is detected in a sandwich assay format using two different specific antibodies, one labelled with Eu3+-Cryptate (donor) and the second with d2(acceptor).When the fluorophores are in close proximity, excitation of the donor with a light source (flash lamp) stimulates FRET to the acceptor, which in turn fluoresces at a specific wavelength (665 nm). The fluorescence emission at 615 nm from the donor is also measured to allow ratiometric reduction of data. The specific signal is proportional to phospho-LRRK2 (Ser935).
Plasmid transient transfection: DMEM medium, FBS, DPBS, Trans-IT, OPTI-MEM reagents were allowed to warm to room temperature. HEK293T cells were cultured in DMEM +10% FBS complete medium in T150 flasks till around 80% confluency before transfection. Then cells were washed with 10 mL PBS and detached with 3 mL 0.25% typinsin. 30×10E6 HEK293T cells were seeded in DMEM +10% FBS complete medium to a 15 cm dish.
DNA, TransIT-LT1, OPTI-MEM complex were prepared: […] OPTI-MEM was added to a 15 mL cone tube, then […] plasmid was added to OPTI-MEM and mixed, followed by addition of 60 μL TransIT-LT1 to the plasmid OPTI-MEM mixture and mixing. The resulting mixture was incubated for 15 minutes.
The above plasmid, DNA and OPTI-MEM mixture was added dropwise to the 15 cm dish, ensuring the drops were evenly distributed. The culture dish was gently rocked back and forth and from left to right to evenly distribute the complex. The tranfected dish was incubated for 24 hours at 37° C., and 5% CO2.
Transfected HEK293T was collected in the 15 cm dish. Media was aspirated from tissue culture dish, and washed by dispensing 10 mL 1× DPBS into 15 cm dish. 1× DPBS was aspirated and 3 mL trypsin was dispensed to 15 cm dish. The dish was incubated with trypsin at room temperature for 3 min until the cells were detached. 10 mL of DMEM +10% FBS medium were added to 15 cm dish and triturated to ensure homogenous cell suspensions.
Homogenous cell suspensions were transferred to a 50 mL tube, and centrifuged for 5 minutes at 1,000 rmp/min. The supernatant was aspirated and resuspended with 20 mL complete medium. 1 mL of cell suspension was transferred for cell counting. The cell suspension was diluted to 2× 10E5 cells/ml. 50 μL cell suspensions were added to a 384-well plate. The plate was quick spun at 800 rpm for 1 minute, then incubate overnight at 37° C., 5% CO2.
Compound dispensing: compound was diluted (10 mM DMSO stock solution) and added to assay plate (top concentration: 10 μM, 3 fold serial dilution, 9 doses) with duplicates by Tecan liquid handler. The DMSO concentration of each well was normalized to 0.2%. Plates were quick spun at 1,000 rpm for 1 minute. Plates were incubated at 37° C., 5% CO2 for 2 hours.
1× lysis buffer solution supplemented with blocking reagent was prepared (e.g. 1 mL lysis buffer 4X+3 mL water+40 μL stock blocking reagent 100X). Antibodies working solution was prepared by diluting 40-fold d2 and Cryptate antibodies with detection buffer(e.g. 1520 μL detection buffer+40 μL d2-antibody stock solution+[…] Cryptate-antibody stock solution).
After 2 hours incubation, cell plates were taken out from the incubator. […]

Sequence of LRRK2 wild type enzyme (Q5S007 whole entry): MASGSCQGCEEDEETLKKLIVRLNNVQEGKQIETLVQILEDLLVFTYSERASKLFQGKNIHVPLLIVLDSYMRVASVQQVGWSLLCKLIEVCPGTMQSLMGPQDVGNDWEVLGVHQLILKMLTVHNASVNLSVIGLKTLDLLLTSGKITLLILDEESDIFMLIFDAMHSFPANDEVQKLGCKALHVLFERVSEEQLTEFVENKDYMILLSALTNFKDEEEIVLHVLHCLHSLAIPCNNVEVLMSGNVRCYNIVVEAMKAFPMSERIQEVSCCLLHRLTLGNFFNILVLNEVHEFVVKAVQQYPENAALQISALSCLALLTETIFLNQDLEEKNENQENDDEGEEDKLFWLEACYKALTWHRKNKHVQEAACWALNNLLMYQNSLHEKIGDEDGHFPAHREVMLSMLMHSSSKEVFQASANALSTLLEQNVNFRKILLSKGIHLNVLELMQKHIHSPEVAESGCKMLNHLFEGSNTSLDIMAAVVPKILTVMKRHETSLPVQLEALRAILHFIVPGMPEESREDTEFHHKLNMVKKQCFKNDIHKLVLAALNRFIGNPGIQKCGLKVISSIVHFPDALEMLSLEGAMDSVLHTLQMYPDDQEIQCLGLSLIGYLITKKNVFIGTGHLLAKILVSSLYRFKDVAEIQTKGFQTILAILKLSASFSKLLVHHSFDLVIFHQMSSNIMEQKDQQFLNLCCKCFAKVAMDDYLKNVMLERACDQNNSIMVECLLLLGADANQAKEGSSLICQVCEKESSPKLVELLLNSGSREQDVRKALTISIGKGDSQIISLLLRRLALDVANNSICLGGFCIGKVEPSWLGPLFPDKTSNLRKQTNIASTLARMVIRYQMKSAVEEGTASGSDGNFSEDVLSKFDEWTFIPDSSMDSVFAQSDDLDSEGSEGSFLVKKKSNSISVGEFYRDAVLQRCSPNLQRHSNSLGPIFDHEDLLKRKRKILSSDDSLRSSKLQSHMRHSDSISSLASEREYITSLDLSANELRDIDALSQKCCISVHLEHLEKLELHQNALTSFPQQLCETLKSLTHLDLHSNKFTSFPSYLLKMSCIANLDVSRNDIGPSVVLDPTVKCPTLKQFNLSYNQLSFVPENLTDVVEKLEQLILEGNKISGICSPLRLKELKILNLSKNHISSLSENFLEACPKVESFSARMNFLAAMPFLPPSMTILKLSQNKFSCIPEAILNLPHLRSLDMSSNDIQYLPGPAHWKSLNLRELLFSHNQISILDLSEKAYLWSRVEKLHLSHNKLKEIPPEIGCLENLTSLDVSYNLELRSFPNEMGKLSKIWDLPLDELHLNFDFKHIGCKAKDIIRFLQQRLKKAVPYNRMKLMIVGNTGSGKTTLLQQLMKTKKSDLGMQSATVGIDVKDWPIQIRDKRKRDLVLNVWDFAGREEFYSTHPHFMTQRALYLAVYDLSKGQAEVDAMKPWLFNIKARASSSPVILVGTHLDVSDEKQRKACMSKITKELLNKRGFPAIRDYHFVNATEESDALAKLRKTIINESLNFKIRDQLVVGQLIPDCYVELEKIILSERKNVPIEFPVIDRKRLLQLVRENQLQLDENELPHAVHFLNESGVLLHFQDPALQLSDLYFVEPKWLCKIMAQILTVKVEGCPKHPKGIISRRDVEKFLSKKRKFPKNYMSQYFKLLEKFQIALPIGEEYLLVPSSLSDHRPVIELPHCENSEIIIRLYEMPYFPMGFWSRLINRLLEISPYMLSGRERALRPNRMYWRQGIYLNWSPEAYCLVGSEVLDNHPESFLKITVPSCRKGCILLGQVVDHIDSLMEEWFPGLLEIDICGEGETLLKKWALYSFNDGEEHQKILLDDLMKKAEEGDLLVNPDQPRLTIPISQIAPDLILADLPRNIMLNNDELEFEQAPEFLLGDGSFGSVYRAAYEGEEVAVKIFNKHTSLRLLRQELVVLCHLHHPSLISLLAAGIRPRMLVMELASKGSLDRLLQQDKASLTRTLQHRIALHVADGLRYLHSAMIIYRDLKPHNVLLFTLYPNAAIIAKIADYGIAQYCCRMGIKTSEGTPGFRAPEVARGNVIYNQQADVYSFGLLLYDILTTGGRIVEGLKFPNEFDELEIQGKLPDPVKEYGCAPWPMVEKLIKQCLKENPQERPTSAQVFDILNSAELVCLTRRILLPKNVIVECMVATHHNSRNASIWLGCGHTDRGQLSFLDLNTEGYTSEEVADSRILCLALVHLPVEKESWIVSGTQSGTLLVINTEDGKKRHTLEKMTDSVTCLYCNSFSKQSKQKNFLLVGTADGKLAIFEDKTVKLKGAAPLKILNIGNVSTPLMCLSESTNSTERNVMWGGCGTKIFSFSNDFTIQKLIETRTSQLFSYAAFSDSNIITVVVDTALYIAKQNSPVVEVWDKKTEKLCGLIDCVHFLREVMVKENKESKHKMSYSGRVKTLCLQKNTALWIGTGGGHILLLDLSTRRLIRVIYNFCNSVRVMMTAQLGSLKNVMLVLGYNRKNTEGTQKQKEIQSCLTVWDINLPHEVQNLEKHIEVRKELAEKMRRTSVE
T1 sequence (Q5S007 whole entry): as above

| Compound | IC50 (LRRK2 wild type enzyme) | IC50 [1] |
| --- | --- | --- |
| C[C@@H]1C[C@H](n2c(CC(=O)Nc3cccnc3O)nc3cnc4ccc(C#N)cc4c32)CCO1 [Compound 218, N-(2-hydroxy-3-pyridyl){3-[(2R,4R)-2-methyltetrahydro-2H-pyran-4-yl]-12-cyano-3,5,8-triazatricyclo[7.4.0.0^2,6]trideca-1,4,6,8,10,12-hexaen-4-yl}acetamide] | 0.45 nM | 83.5 nM |
| Cc1ncncc1NC(=O)Cc1nc2cnc3ccc(C#N)cc3c2n1[C@@H]1CCO[C@H](C)C1 [Compound 216, N-(4-methyl-5-pyrimidinyl){3-[(2R,4R)-2-methyltetrahydro-2H-pyran-4-yl]-12-cyano-3,5,8-triazatricyclo[7.4.0.0^2,6]trideca-1,4,6,8,10,12-hexaen-4-yl}acetamide] | 0.422 nM | 12.4 nM |
| C[C@@H]1C[C@H](n2c(CC(=O)NC3(c4ncccn4)CC3)nc3cnc4ccc(C#N)cc4c32)CCO1 [Compound 360, N-[1-(2-pyrimidinyl)cyclopropyl]{3-[(2R,4R)-2-methyltetrahydro-2H-pyran-4-yl]-12-cyano-3,5,8-triazatricyclo[7.4.0.0^2,6]trideca-1,4,6,8,10,12-hexaen-4-yl}acetamide] | 1.24 nM | 104 nM |
| C[C@@H]1C[C@H](n2c(CC(=O)NC[C@H]3CCOC3)nc3cnc4ccc(C#N)cc4c32)CCO1 [Compound 172, 2-{8-cyano-1-[(2R,4R)-2-methyloxan-4-yl]-1H-imidazo[4,5-c]quinolin-2-yl}-N-{[(3R)-oxolan-3-yl]methyl}acetamide] | 0.567 nM | 37.6 nM |
| C[C@@H]1C[C@H](n2c(CC(=O)NCC(F)(F)F)nc3cnc4ccc(C#N)cc4c32)CCO1 [Compound 186, 2-{8-cyano-1-[(2R,4R)-2-methyloxan-4-yl]-1H-imidazo[4,5-c]quinolin-2-yl}-N-(2,2,2-trifluoroethyl)acetamide] | 0.556 nM | 43.9 nM |
| C[C@@H]1C[C@H](n2c(CC(=O)NC3CC3)nc3cnc4ccc(Cl)cc4c32)CCO1 [Compound 183, 2-{8-chloro-1-[(2R,4R)-2-methyloxan-4-yl]-1H-imidazo[4,5-c]quinolin-2-yl}-N-cyclopropylacetamide] | 0.258 nM | 11.1 nM |
| Cc1ccc(CN2CC(c3nc4cnc5ccc(C#N)cc5c4n3[C@@H]3CCO[C@H](C)C3)CC2=O)cn1 (stereo partly drawn) [Compound 13, 1-[(2R,4R)-2-methyloxan-4-yl]-2-{1-[(6-methylpyridin-3-yl)methyl]-5-oxopyrrolidin-3-yl}-1H-imidazo[4,5-c]quinoline-8-carbonitrile] | 1.19 nM | 180 nM |
| C[C@@H]1C[C@H](n2c(CC(=O)Nc3cnn(C)c3CO)nc3cnc4ccc(C#N)cc4c32)CCO1 [Compound 158, 2-{8-cyano-1-[(2R,4R)-2-methyloxan-4-yl]-1H-imidazo[4,5-c]quinolin-2-yl}-N-[5-(hydroxymethyl)-1-methyl-1H-pyrazol-4-yl]acetamide] | 0.454 nM | 272 nM |
| C[C@@H]1C[C@H](n2c([C@H]3CCN(C(=O)C4CC4)C3)nc3cnc4ccc(C#N)cc4c32)CCO1 [Compound 41, 2-[(3S)-1-cyclopropanecarbonylpyrrolidin-3-yl]-1-[(2R,4R)-2-methyloxan-4-yl]-1H-imidazo[4,5-c]quinoline-8-carbonitrile] | 9.62 nM | 639 nM |
| C[C@@H]1C[C@H](n2c(CC(=O)NCc3cnccn3)nc3cnc4ccc(Cl)cc4c32)CCO1 [Compound 150, 2-{8-chloro-1-[(2R,4R)-2-methyloxan-4-yl]-1H-imidazo[4,5-c]quinolin-2-yl}-N-[(pyrazin-2-yl)methyl]acetamide] | 0.47 nM | 7.19 nM |
| C[C@@H]1C[C@H](n2c(CC(=O)Nc3ncccn3)nc3cnc4ccc(C#N)cc4c32)CCO1 [Compound 178, 2-{8-cyano-1-[(2R,4R)-2-methyloxan-4-yl]-1H-imidazo[4,5-c]quinolin-2-yl}-N-(pyrimidin-2-yl)acetamide] | 0.34 nM | 3.92 nM |
| C[C@@H]1C[C@H](n2c(C3CC(=O)N([C@@H]4CCCOC4)C3)nc3cnc4ccc(C#N)cc4c32)CCO1 (stereo partly drawn) [Compound 51, 1-[(2R,4R)-2-methyloxan-4-yl]-2-{1-[(3R)-oxan-3-yl]-5-oxopyrrolidin-3-yl}-1H-imidazo[4,5-c]quinoline-8-carbonitrile] | 3.03 nM | 312 nM |
| COc1nnccc1NC(=O)Cc1nc2cnc3ccc(C#N)cc3c2n1[C@@H]1CCO[C@H](C)C1 [Compound 222, N-(3-methoxy-4-pyridazinyl){3-[(2R,4R)-2-methyltetrahydro-2H-pyran-4-yl]-12-cyano-3,5,8-triazatricyclo[7.4.0.0^2,6]trideca-1,4,6,8,10,12-hexaen-4-yl}acetamide] | 0.263 nM | 2.9 nM |
| C[C@@H]1C[C@H](n2c(CC(=O)NCC3(CO)CC3)nc3cnc4ccc(C#N)cc4c32)CCO1 [Compound 242, N-[1-(hydroxymethyl)cyclopropyl]methyl{3-[(2R,4R)-2-methyltetrahydro-2H-pyran-4-yl]-12-cyano-3,5,8-triazatricyclo[7.4.0.0^2,6]trideca-1(9),2(6),4,7,10,12-hexaen-4-yl}acetamide] | 0.69 nM | 106 nM |
| C[C@@H]1C[C@H](n2c(CNC(=O)C3CC3)nc3cnc4ccc(C#N)cc4c32)CCO1 [Compound 17, N-({8-cyano-1-[(2R,4R)-2-methyloxan-4-yl]-1H-imidazo[4,5-c]quinolin-2-yl}methyl)cyclopropanecarboxamide] | 6.61 nM | 477 nM |
| C[C@@H]1C[C@H](n2c(CC(=O)NC(C)(C)c3ccccn3)nc3cnc4ccc(C#N)cc4c32)CCO1 [Compound 185, 2-{8-cyano-1-[(2R,4R)-2-methyloxan-4-yl]-1H-imidazo[4,5-c]quinolin-2-yl}-N-[2-(pyridin-2-yl)propan-2-yl]acetamide] | 0.42 nM | 2.56 nM |
